Test results as given in patent US20260022127A1, “HEXACYCLIC TOPOISOMERASE INHIBITORS HAVING CYTOTOXIC ACTIVITY ON CANCER CELLS” (priority 2022, published 2026).
Like-named read-outs stand apart in the source and are kept apart here.

System: SKBR-3 cell line (human breast cancer)
Test: 2D-cytotoxicity assay of free payloads (Cell titer glow, 72 hours)
Type: cell-based
Method: Protocol: Day 1:5,000 cells/well were plated and incubated at 37° C. overnight, unless otherwise noted.
Day 2: Payload/vehicle control dilutions were made in respective media and added to cells. Volume added: 50 μL to each well. Starting treatment concentration was 0.1 mM for free payloads/10% for vehicle control and then diluted 10-fold down for a total of 11 treatment dilutions. Each concentration was analyzed in triplicates. Media-only wells was used as a control to calculate percent viability.
Day 5: Cell titer glow reagent (volume: 50 μL) was added to each well, the plate was shaken for 5 mins and the luminescence was recorded.
Drug Treatment Time: 72 hours.
Data Analysis: Percent viability was calculated by dividing the luminescence signal obtained for each treated well by the untreated well (media-only control) and multiplying by 100. Data was next transformed using X=Log (x) and then analyzed with nonlinear regression (curve fit), Dose Response inhibition−log (inhibitor) vs response (3 parameters) using PRISM software to determine the IC50 value.

[1] = Homo sapiens, SK-BR-3, SKBR-3, 2000 cells/well, read-out: IC50
[2] = Homo sapiens, SK-BR-3, SKBR-3, 5,000 cells/well, read-out: IC50
[3] = Homo sapiens, SK-BR-3, 72 h, SKBR-3, 5,000 cells/well
[4] = SKBR-3, 5,000 cells/well, read-out: IC50

## CC[C@@]1(O)C(=O)OCc2c1cc1n(c2=O)Cc2c-1nc1cc(F)c(C)c3c1c2[C@H](OCNC(=O)CN)CC3 (single isomer, unassigned) [E-35a*]
[1]
  IC50: 28.1 nM

## CC[C@@]1(O)C(=O)OCc2c1cc1n(c2=O)Cc2c-1nc1cc(F)c(C)c3c1c2[C@@H](OCNC(=O)CN)CC3 (single isomer, unassigned) [E-35b*]
[1]
  IC50: 58.8 nM

## CC[C@@]1(O)C(=O)OCc2c1cc1n(c2=O)Cc2c-1nc1cc(F)c(C)c3c1c2C(O)CC3 (some centres unmarked) [Compound E-1]
[2]
  IC50: 3.27 nM

## CC[C@@]1(O)C(=O)OCc2c1cc1n(c2=O)Cc2c-1nc1cc(F)c(C)c3c1c2C(=O)CC3 [Compound E-2]
Homo sapiens, SK-BR-3, 72 h, SKBR-3, 5,000 cells/well, payload in ACN:Water
  IC50: 27.7 nM
Homo sapiens, SK-BR-3, 72 h, SKBR-3, 5,000 cells/well, payload in DMSO
  IC50: 73.2 nM

## CCC1(O)C(=O)OCc2c1cc1n(c2=O)Cc2c-1nc1cc(F)c(C)c3c1c2CCC3 (centres unmarked) [Compound E-10]
[3]
  IC50: 2.7 nM

## CC[C@@]1(O)C(=O)OCc2c1cc1n(c2=O)Cc2c-1nc1cc(F)c(C)c3c1c2CCC3 [Compound E-18]
[3]
  IC50: 1.1 nM

## CC[C@@]1(O)C(=O)OCc2c1cc1n(c2=O)C(O)c2c-1nc1cc(F)c(C)c3c1c2CCC3 (some centres unmarked) [Compound E-19]
[3]
  IC50: 75.7 nM

## C=CCC1c2c(nc3cc(F)c(C)c4c3c2CCC4)-c2cc3c(c(=O)n21)COC(=O)[C@]3(O)CC (some centres unmarked) [Compound E-21]
[2]
  IC50: 415 nM

## C#CCOC1c2c(nc3cc(F)c(C)c4c3c2CCC4)-c2cc3c(c(=O)n21)COC(=O)[C@]3(O)CC (some centres unmarked) [Compound E-22]
[2]
  IC50: 76.3 nM

## C=CCC1(CC=C)c2c(nc3cc(F)c(C)c4c3c2CCC4)-c2cc3c(c(=O)n21)COC(=O)[C@]3(O)CC [Compound E-23]
[2]
  IC50: 3580 nM

## CC[C@@]1(O)C(=O)OCc2c1cc1n(c2=O)C2(CC=CC2)c2c-1nc1cc(F)c(C)c3c1c2CCC3 [Compound E-24]
[2]
  IC50: 517 nM

## CC[C@@]1(O)C(=O)OCc2c1cc1n(c2=O)C(C)(C)c2c-1nc1cc(F)c(C)c3c1c2CCC3 [Compound E-25]
[2]
  IC50: 3040 nM

## CC[C@@]1(O)C(=O)OCc2c1cc1n(c2=O)Cc2c-1nc1cc(F)c(C)c3c1c2C(=NO)CC3 [Compound E-29]
[3]
  IC50: 15.5 nM

## CC[C@@]1(O)C(=O)OCc2c1cc1n(c2=O)Cc2c-1nc1cc(F)c(C)c3c1c2C(OCNC(=O)CN)CC3 (some centres unmarked) [Compound E-35]
[3]
  IC50: 7.68 nM

## CC[C@@]1(O)C(=O)OCc2c1cc1n(c2=O)Cc2c-1nc1c(Cl)c(F)c(C)c3c1c2CCC3 [Compound E-38]
[2]
  IC50: 35 nM

## CC[C@@]1(O)C(=O)OCc2c1cc1n(c2=O)Cc2c-1nc1cc(F)c(C)c3c1c2C(OCNC(=O)CNC)CC3 (some centres unmarked) [Compound E-42]
Homo sapiens, SK-BR-3, 72 h, SKBR-3, 1000 cells/well
  IC50: 12 nM

## CC[C@@]1(OC(=O)CCCN)C(=O)OCc2c1cc1n(c2=O)Cc2c-1nc1cc(F)c(C)c3c1c2CCC3 [Compound E-43]
[1]
  IC50: 32.5 nM

## CC[C@@]1(O)C(=O)OCc2c1cc1n(c2=O)Cc2c-1nc1cc(F)c(C)c3c1c2[C@@H](NC(=O)CO)CC3 [Exatecan Glycolamide, reference compound]
[4]
  IC50: 5.06 nM

## Exatecan Mesylate [reference compound]
[4]
  IC50: 2.45 nM
